Results: paper PMC4604765, “Eye drop delivery of pigment epithelium-derived factor-34 promotes retinal ganglion cell neuroprotection and axon regeneration” (Molecular and Cellular Neurosciences, 2015)
No end group written: not given here.

Key:
[1] = tested on: βIII-tubulin+ retinal neurons
Description: For all in vitro experiments, adult 6–8-week-old female Sprague–Dawley rats weighing 170–220 g were used. Culture experiments included retinal cells treated with: (1), Neurobasal-A (NBA) alone (Control); and equimolar concentrations of (2), 2.16; (3) 5.4; (4), 10.8 and (5), 21.6 pM PEDF-34/-44; and (6), ciliary neurotrophic factor (CNTF: Peprotech, London, UK), as a positive control at an optimal neuroprotective/axogenic concentration of 440.5 pM, established by us previously ([Ahmed et al., 2009; Douglas et al., 2009]). […] All experiments were performed in triplicate and repeated on three independent occasions.
Mixed adult rat retinal cultures containing enriched populations of retinal neurons, including RGCs, were prepared from 6–8-week-old adult female Sprague–Dawley rats, as described previously ([Ahmed et al., 2006b, 2009, 2010; Douglas et al., 2009; Vigneswara et al., 2013]). Briefly, retinal cells were dissociated using a Papain dissociation kit according to the manufacturer's instructions (Worthington Biochemicals, Lakewood, NJ, USA). […]
The mean number of βIII-tubulin^+ neurons surviving, with neurites and the mean neurite length were quantified as described by us previously ([Vigneswara et al., 2013, 2014]). Briefly, chamber slides were anonymised by a second investigator and βIII-tubulin^+ neuronal soma and neurites quantified in 9 quadrants/well using Axiovision software (Version 4.8; Zeiss) and ImagePro (Version 6.3; Media Cybernetics, Bethesda, MD, USA). Of the 125,000 cells/well plated, the total numbers of neurons in each experiment were determined by βIII-tubulin^+ immunocytochemistry after allowing 30 min for cells to adhere to glass culture slides. […] Neurite outgrowth from at least 180 neurons/condition from the 9 wells was measured, except in control (NBA) cultures, in which a total of 108 neurons were measured.

[2] = tested on: RGC axons; assay: RGC axon regeneration after optic nerve crush (GAP-43 immunohistochemistry of optic nerve); type: in vivo, rat; settings: 21 days after ONC; for number of GAP-43+ axons distal from the lesion site: daily eye drops 1.88 nM; for number of GAP-43+ axons in distal optic nerve stump: weekly intravitreal 1.88 nM
Method: In a separate set of experiments comprising the same treatment groups, 6 rats/treatment (i.e. 12 eyes/optic nerves/treatment) were used to evaluate RGC axon regeneration by immunostaining with growth-associated protein-43 (GAP-43) in the optic nerve.
In further experiments, 12 rats (24 eyes/optic nerves)/treatment received 1.88 nM PEDF-34 eye drops daily. Six rats (12 eyes)/treatment were used to assess RGC survival at 21 days using FG backfilling, whilst the remaining 6 rats (12 eyes/optic nerves)/treatment were used to evaluate RGC axon regeneration at 21 days by GAP-43 immunohistochemistry.
All animal procedures were licenced and approved by the United Kingdom Home Office and the University of Birmingham ethical review committee and conformed to the Federation of European Laboratory Animal Associations (FELASA) guidelines. Optic nerves were exposed surgically in anaesthetised adult female Sprague–Dawley rats (170–220 g) through a supraorbital approach and crushed bilaterally using calibrated watchmakers forceps, 2 mm from the lamina cribrosa as described by us previously ([Vigneswara et al., 2013, 2014]).
Either PBS, or 0.268, 0.67, 1.34, 1.88, or 2.68 nM PEDF dissolved in 5 μl of sterile PBS was injected intravitreally immediately after ONC (0 days) and repeated at 7 and 14 days after ONC with the same doses of PEDF. […] Animals survived for 19 days before FG back-labelling and killing by rising CO2 levels 2 days later, and eyes/optic nerves harvested for retinal FG wholemounts.
Animals were killed with an overdose of CO2 and intracardially perfused with 4% formaldehyde, eyes and optic nerves were immersion fixed in 4% formaldehyde for a further 2 h before cryoprotection in a graded series of sucrose. Eyes and optic nerves were embedded in optimal cutting temperature (OCT) compound (Raymond A. Lamb, Eastbourne, UK) and stored at − 80 °C. Subsequently, 15 μm-thick parasagittal eye or longitudinal optic nerve sections were cut using a cryostat (Brights Instruments, Huntingdon, UK), adhered onto glass slides and stored at − 20 °C until required.
Immunohistochemistry was performed as described by us previously ([Vigneswara et al., 2013, 2014]). Briefly, sections were thawed, washed at RT in PBS and permeabilised. Non-specific binding sites were blocked in 3% bovine serum albumin (BSA) containing 0.1% Triton X-100 and then sections were incubated in primary antibody diluted in PBS containing 3% BSA and 0.05% Tween-20, overnight at 4 °C (16–18 h). Monoclonal anti-GAP-43 antibody (1:500 dilution; Invitrogen) stained regenerating axons in optic nerve sections (Table 1). […] Sections were then washed in PBS and incubated with either Alexa Fluor 488 or Texas Red-labelled secondary antibodies (1:400 dilution; Invitrogen) for 1 h at RT, washed in PBS, mounted in Vectamount containing DAPI (Vector Laboratories) and examined with a Zeiss Axioplan 2 fluorescent microscope, equipped with an AxioCam HRc camera and Axiovision software. The negative control sections were used to set the background threshold levels of fluorescence before image capture.
Regenerating axons in the optic nerve were quantified using previously published methods ([Leon et al., 2000; Lorber et al., 2009; Vigneswara et al., 2013, 2014]). […] Briefly, an observer blinded to the identity of the slides […] through each nerve (n = 6 rats/12 optic nerves/treatment).

DPFFKVPVNKLAAAVSNFGYDLYRVRSSTSPTTN [PEDF-34]
fold increase in βIII-tubulin+ neuron numbers compared to untreated cultures ([1]; 5.4 pM, 4 days in culture): 4.5 fold | more neuroprotective than PEDF-44 in vitro ([1]; PEDF-34 versus equimolar PEDF-44, retinal cultures): 43% | number of GAP-43+ axons distal from the lesion site ([2]; 200 μm distal, n = 6 rats/12 optic nerves): 4049 ± 355 axons | number of GAP-43+ axons distal from the lesion site ([2]; 500 μm distal): 2893 ± 315 axons | number of GAP-43+ axons distal from the lesion site ([2]; 1000 μm distal): 2043 ± 120 axons | number of GAP-43+ axons distal from the lesion site ([2]; 1500 μm distal): 1285 ± 126 axons | number of GAP-43+ axons distal from the lesion site ([2]; 2000 μm distal): 884 ± 139 axons | number of GAP-43+ axons distal from the lesion site ([2]; 2500 μm distal): 582 ± 155 axons | number of GAP-43+ axons in distal optic nerve stump ([2]; 200 μm from the lesion site, n = 6 rats/12 optic nerves): 2038 ± 234 axons | number of GAP-43+ axons in distal optic nerve stump ([2]; 500 μm from the lesion site): 1733 ± 237 axons | number of GAP-43+ axons in distal optic nerve stump ([2]; 1000 μm from the lesion site): 1462 ± 175 axons | number of GAP-43+ axons in distal optic nerve stump ([2]; 1500 μm from the lesion site): 945 ± 100 axons | number of GAP-43+ axons in distal optic nerve stump ([2]; 2000 μm from the lesion site): 79 ± 44 axons
